Read-outs that look alike come from different tables or passages of the source.
What was measured:
[1] = tested on: PC3 (human prostate tumor); experiment: Tumor panel screen cytotoxicity (Example 10A); type: cell-based; conditions: PC-3 Prostate
Description: (§1) Cells were maintained at subconfluent densities in their respective culture media.

[2] = tested on: MDA-MB-231 (human breast tumor); experiment: Tumor panel screen cytotoxicity (Example 10A); type: cell-based; conditions: MDA-MB-231 Breast
Description: as §1

[3] = tested on: OVCAR-3 (human ovarian tumor); experiment: Tumor panel screen cytotoxicity (Example 10A); type: cell-based; conditions: OVCAR-3 Ovary
Description: as §1

[4] = tested on: NCI-H292 (human non-small cell lung tumor); experiment: Tumor panel screen cytotoxicity (Example 10A); type: cell-based; conditions: maximum cytotoxic effect
Description: as §1

[5] = tested on: B16-F10 (murine melanoma); experiment: Tumor panel screen cytotoxicity (Example 10A); type: cell-based
Description: as §1

[6] = tested on: CCD-27sk (normal human fibroblast); experiment: Tumor panel screen cytotoxicity (Example 10A); type: cell-based; conditions: CCD-27sk Fibroblast
Description: as §1

HT29 (human colon tumor) = experiment: Tumor panel screen cytotoxicity (Example 10A); type: cell-based
Description: as §1

[7] = target: panel of 60 different kinases; experiment: Broad kinase screen, primary screen; type: biochemical; conditions: 10 μM compound, ATP 10 μM, 60 kinases
HT-29 human colon tumor = experiment: HT-29 Human Colon Tumor Xenograft Model; type: in vivo
Outline: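 Nude mice bearing s.c. trocar-implanted HT-29 fragments were grouped at 5 mm×5 mm tumours and dosed i.p.; in combinations, reference chemotherapy was given 15-30 min before compound. Caliper measurements twice weekly were converted to tumour weight as (W^2×L)/2, with study end when control tumours averaged 1000 mg.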

[8] = tested on: HL-60/MX-2 (Mitoxantrone-Resistant); experiment: Drug resistant cell line pair, cytotoxicity (Example 10B); type: cell-based, human; conditions: Homo sapiens, HL60/MX2; HL-60 Resistant (HL-60/MX-2)
Description: (§2) 2) Human Acute Promyelocytic Leukemia Cell Line Pair: HL-60 (Mitoxantrone-Sensitive) and HL-60/MX-2 (Mitoxantrone-Resistant)

[9] = tested on: human prostate tumor cells; experiment: Induction of apoptosis, morphological changes; type: cell-based
Description: Apoptosis and its dysregulation play an important role in oncology; the selective induction of the programmed cell death cycle in tumor cells is the goal of many chemotherapeutic drug discovery programs.
The characteristic signs of apoptotic cell death include cell membrane blebbing, disruption of nuclei, cell shrinkage and condensation and finally cell death, very distinctive from necrotic cell death. […] A similar finding was also clear in the treatment of HuVEC cells with KPU-2.

Jurkat cells = experiment: cells; type: cell-based; conditions: Jurkat cells
[10] = tested on: DU-145 human prostate tumor; experiment: DU-145 Human Prostate Tumor Xenograft Model; type: in vivo, nude mice; conditions: KPU-2 plus taxotere, treatment Days 20-27
Experimental: When the tumors reached 5 mm×5 mm (at about 13-17 days) the animals were matched into treatment and control groups.
In this model unless otherwise noted for the individual study, test compounds were administered via the intraperitoneal route on Days 1, 3, 5, 8 and 11 (q3dx5); taxotere was administered intravenously on Days 1, 3 and 5 (q2dx3).

MCF-7 human breast tumor = experiment: MCF-7 Human Breast Tumor Xenograft Model; type: in vivo, nude mice; conditions: in combination with taxotere
Outline: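 Female nu/nu mice (~20 g, 5–6 wk) given 21-day estrogen pellets (0.25 mg) s.c. 24 h before s.c. MCF-7 tumor fragment implantation; 9–10 mice/group. Compounds dosed i.p. (qdx5 Days 1–5, or Days 1, 2, 3, 4, 7); taxotere i.v. (Days 1, 3, 5 or 1, 3, 7), given 15–30 min before compound in combinations.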

HT-29 human colon cells = experiment: Tumor cytotoxicity assay, resazurin fluorescence, 48 h (Example 6); type: cell-based; conditions: Homo sapiens
[11] = tested on: HL-60 (Mitoxantrone-Sensitive) human acute promyelocytic leukemia; experiment: Drug resistant cell line pair, cytotoxicity (Example 10B); type: cell-based; conditions: HL-60 Sensitive
Description: as §2

[12] = tested on: B16-F10 murine melanoma cells; experiment: B16-F10 Metastatic Murine Melanoma Model; type: in vivo, B6D2F1 mice; conditions: monotherapy, lung surface metastases day 16
Experimental: The animals used were: female nude mice (nu/ni) (MDA-231 study) or B6D2F1 (B16-F10 studies) mice between 5 and 6 weeks of age (˜20 g, Harlan); group size was 10 mice per group unless otherwise indicated.
The cell lines used were: MDA-MB-231 human breast tumor and B16-F10 murine melanoma cells.
NPI compounds were administered as monotherapy via the intraperitoneal route at the doses indicated for the individual study; for the combination studies the selected reference chemotherapy agents were injected 15-30 min prior to the NPI compound.
Mice received B16-F10 cells (prepared from an in vitro cell culture of B16-F10 cells) by the iv route on Day 0. On Day 1 mice were randomized into treatment and control groups and treatment commenced. Mice were weighed twice weekly, starting on Day 1. All mice are sacrificed on Day 16, the lungs removed, weighed and the surface colonies counted. Results are expressed as mean colonies of treated mice/mean colonies of control mice (T/C)×100%). The metastasis growth inhibition (MGI) is this number subtracted from 100%. Paclitaxel was the standard chemotherapy agent used in this study.
In this model unless otherwise noted for the individual study, the test compounds were administered via the intraperitoneal route on Days 1-5 (qdx5); paclitaxel was administered intravenously on Days 1-5(qdx5).

[13] = tested on: A549 human non small cell lung tumor; experiment: A549 Human Lung Tumor Xenograft Model; type: in vivo, nude mice; conditions: KPU-2 7.5 mg/kg ip qdx5 with taxotere
Experimental: Animals used were (exceptions are indicated for individual studies): female nude mice (nu/nu) between 5 and 6 weeks of age (˜20 g, Harlan); group size was 9-10 mice per group unless otherwise indicated.
Selected novel compounds were administered as monotherapy via the intraperitoneal (i.p.) route at the doses indicated for the individual study; for the combination studies the selected reference chemotherapy agents were injected 15-30 min prior to the compound.
Saline dilutions are used to achieve the injection concentrations used for the reference compounds.
Animals were implanted s.c. by trocar with fragments of A549 tumors harvested from s.c. growing tumors in nude mice hosts. When the tumor size reached 5 mm×5 mm (about 10-17 days) the animals were matched into treatment and control groups.

## CC(C)(C)c1[nH]cnc1/C=c1\[nH]c(=O)/c(=C/c2ccccc2)[nH]c1=O [KPU-2, tBu-dehydro-PLH]
[1]; Homo sapiens
  IC50: 13.4 nM
[1]; maximum cytotoxic effect
  % Cytotoxicity Mean: 60.3%
[2]; Homo sapiens
  IC50: 13.8 nM
[2]; maximum cytotoxic effect
  % Cytotoxicity Mean: 56.7%
[3]; Homo sapiens
  IC50: > 20000 nM
[3]; maximum cytotoxic effect
  % Cytotoxicity Mean: 45.8%
[4]
  % Cytotoxicity Mean: 70.5%
[5]; Mus musculus
  IC50: 37.1 nM
[5]; maximum cytotoxic effect
  % Cytotoxicity Mean: 71.8%
[6]; maximum cytotoxic effect
  % Cytotoxicity Mean: 64.3%
[6]; Homo sapiens
  IC50: 9.2 nM
HT29 (human colon tumor); HT-29 Colon, maximum cytotoxic effect
  % Cytotoxicity Mean: 82.5%
HT29 (human colon tumor); Homo sapiens, HT-29 Colon
  IC50: 9.8 nM
HT29 (human colon tumor); in words
  potency on the HT-29 tumor cell line: low nanomolar range
[7]
  kinases inhibited in the primary screen: Four kinases were inhibited by greater than 50%
HT-29 human colon tumor; NPI compound + CPT-11 100 ip qwx3, study and dose as in the line
  Comments (combination with CPT-11): Synergy
HT-29 human colon tumor; Study 2139, monotherapy 7.5 mg/kg ip q3dx5
  NPI-Compound Result TGI %: No Effect
HT-29 human colon tumor; Study 2164, monotherapy 7.5 mg/kg ip q3dx5
  NPI-Compound Result TGI %: No Effect
HT-29 human colon tumor; Study 2164, monotherapy 7.5 mg/kg ip qdx5
  NPI-Compound Result TGI %: No Effect
HT-29 human colon tumor; Study 2288, monotherapy 10→7.5 mg/kg ip q3dx5
  NPI-Compound Result TGI %: No Effect
HT-29 human colon tumor; which treatment group exceeds the criterion, NPI compound, CPT-11 100 ip qwx3 or combination, study and dose as in the line
  Exceed NCI Criterion (TGI ≧ 58%): Combination
[8]
  IC50: 8.17 nM
[9]
  morphological changes of apoptosis: induced the typical morphological changes associated with early stages of apoptosis
Jurkat cells
  Cytotoxicity Efficacy % Cell Death: 94%
[10]
  apparent TGI: > 58%
MCF-7 human breast tumor
  effect on estimated tumor growth: appeared to be the most effective
HT-29 human colon cells; HT-29, Table 6, proliferation of HT-29 cells
  EC50: 13 nM
HT-29 human colon cells; HT-29, Table 9, summary of modification at the o-position, HT-29
  EC50: 48 nM
HT-29 human colon cells; HT-29, Table 10, summary of modification at the m-position, HT-29
  EC50: 48 nM
HT-29 human colon cells; HT-29, read-out: EC50 (nM) HT-29, Table 2
  EC50: 13 nM
HT-29 human colon cells; HT-29, read-out: EC50 (nM) HT-29, Table 3
  EC50: 13 nM
HT-29 human colon cells; HT-29, Table 5, synthetic potent dehydroPLH derivatives
  EC50: 13 nM
[11]
  IC50: 6.4 nM
[12]
  MGI (metastasis growth inhibition): 41.6%
[13]
  TGI of the cotherapy group: 74.4%
